The structures appear in SMILES notation.

Assay in all cases: greenhouse experiment, post-emergence treatment
Common to all, as to assay type: in vivo
Conditions in all cases: application rate of 16 g/ha, post-emergence method; scale from 0 to 100

One assay deals with Setaria viridis. An excerpt: (§1) The seeds of the test plants were sown separately for each species. For the post-emergence treatment, the test plants were first grown to a height of 3 to 15 cm, depending on the plant habit, and only then treated with the active ingredients which had been suspended or emulsified in water. For this purpose, the test plants were either sown directly and grown in the same containers, or they were first grown separately as seedlings and transplanted into the test containers a few days prior to treatment. Depending on the species, the plants were kept at 10-25° C. or 20-35° C., respectively. The test period extended over 2 to 4 weeks. During this time, the plants were tended, and their response to the individual treatments was evaluated. Evaluation was carried out using a scale from 0 to 100. 100 means no emergence of the plants, or complete destruction of at least the aerial moieties, and 0 means no damage, or normal course of growth. A good herbicidal activity is given at values of at least 70 and a very good herbicidal activity is given at values of at least 85. The plants used in the greenhouse experiments were of the following species: [table]

The test system of a further assay is Chenopodium album.
Excerpt: as §1

A further assay relates to Amaranthus retroflexus.
Excerpt: as §1

For `COC(=O)C(OC)Oc1cc(-c2ncc(Cl)cc2Cl)ccc1Cl` (racemic) [Example 6], the “herbicidal activity against Setaria viridis” value in the assay on Setaria viridis is recorded as “very good herbicidal activity (a very good herbicidal activity is given at values of at least 85)”. Further, the “herbicidal activity against Chenopodium album” value in the assay on Chenopodium album was “good herbicidal activity (A good herbicidal activity is given at values of at least 70)”. Moreover, the “herbicidal activity against Amaranthus retroflexus” value with Amaranthus retroflexus is recorded as “very good herbicidal activity (a very good herbicidal activity is given at values of at least 85)”.

In the case of `COc1ccc(CNC(=O)C(OC)Oc2cc(-c3ncc(C(F)(F)F)cc3Cl)c(F)cc2Cl)cc1` (stereo not drawn) [Example 44], the “herbicidal activity against Setaria viridis” value in the assay with Setaria viridis is recorded as “good herbicidal activity (A good herbicidal activity is given at values of at least 70)”. In addition, the “herbicidal activity against Chenopodium album” value in the assay on Chenopodium album was “very good herbicidal activity (a very good herbicidal activity is given at values of at least 85)”. Further, the “herbicidal activity against Amaranthus retroflexus” value in the assay with Amaranthus retroflexus is given as “very good herbicidal activity (a very good herbicidal activity is given at values of at least 85)”.

These data come from patent US10221137B2, “Herbicidal phenylpyridines” (BASF SE, priority 2015, dated 2019).
